# Experimental data: patent US20110105397A1, “METHOD FOR TREATING HEART FAILURE WITH STRESSCOPIN-LIKE PEPTIDES” (priority 2009, published 2011)
# Read-outs that look alike come from different tables or passages of the source.
# Key:
# [1] = Nonclinical pharmacokinetics in rats; set-up: species or system rat; conditions: in vivo
# Method: A sandwich immunoassay was developed using an affinity purified goat polyclonal antibody, specific to h-SCP that was pre-coated onto a microplate with integrated electrodes. h-SCP molecules present in the sample will bind to the capture polyclonal antibody coated on the plate. After washing away any unbound substances, a sulfo-tagged mouse monoclonal anti-h-SCP antibody was added. This conjugated antibody will bind to the h-SCP molecules captured on the microplate and the quantity of analyte was determined by electrochemiluminescence. The amount of signal generated is directly proportional to the h-SCP concentration in the sample or standard. The standard curve range is 3.125-1600 pg/mL with a quantifiable range from 10-800 pg/mL. A sample volume of 25 μL (in duplicate) is required for this assay. This immunoassay is specific for human and dog stresscopin and human urocortin III (h-UCN3). […] After completion of the analysis, based on a comparison of reference standards between the ELISA and HPLC method, a correction factor of 1.57 was applied to all bioanalytical data.
# The nonclinical pharmacokinetics of h-SCP (SEQ ID NO:1) and pegylated stresscopin-like peptides were studied in rats, dogs, and cynomolgus monkeys (cyno). Nonclinical pharmacokinetic studies focused on characterization of IV infusion at pharmacologically relevant dose levels, supplemented with IV and SC bolus and toxicokinetic analysis.
# [2] = test system: anaesthetized mongrel dogs; experiment: Hemodynamic, angiographic, echocardiographic profile in anaesthetized healthy dogs, IV bolus; assay type: in vivo, dog
# Method: The effects of h-SCP (SEQ ID NO: 1) on cardiovascular function were also assessed in anaesthetized mongrel dogs following intravenous bolus and 30-minute infusions. Hemodynamic and left ventricular systolic and diastolic function was evaluated using conventional hemodynamic, angiographic, echocardiographic, and radiographic methods with the results summarized in Table 16.
# [3] = female, rat IV infusion 3 hours, F, 83.3 ng/kg/min
# [4] = female, rat IV infusion 3 hours, F, 167 ng/kg/min
# [5] = female, rat IV infusion 3 hours, F, 333 ng/kg/min
# [6] = male, 3000 ng/kg, rat IV bolus, M, 3,000 ng/kg
# [7] = male, 10000 ng/kg, rat IV bolus, M, 10,000 ng/kg
# [8] = male, 300000 ng/kg, rat IV bolus, M, 300,000 ng/kg
# [9] = male, rat IV infusion 3 hours, M, 83.3 ng/kg/min
# [10] = male, rat IV infusion 3 hours, M, 167 ng/kg/min
# [11] = male, rat IV infusion 3 hours, M, 333 ng/kg/min
substance,measurement,setting,value
"H-TKFTLSLDVPTNIMNLLFNIAKAKNLRAQAAANAHLMAQI-NH2 [SEQ ID NO: 1, TKFTLSLDVPTNIMNLLFNIAKAKNLRAQAAANAHLMAQI-NH2]",AUC(0-inf),[1]; [3],1.47 ng·h/mL
same,Cmax,[1]; [3],0.906 ng/mL
same,clearance,"[1]; female, rat IV infusion 3 hours, F, 83.3 ng/kg/min, read-out: CL",107 mL/min/kg
same,AUC(0-inf),[1]; [4],1.15 ng·h/mL
same,Cmax,[1]; [4],0.683 ng/mL
same,clearance,"[1]; female, rat IV infusion 3 hours, F, 167 ng/kg/min, read-out: CL",271 mL/min/kg
same,AUC(0-inf),[1]; [5],4.45 ng·h/mL
same,Cmax,[1]; [5],2.67 ng/mL
same,clearance,"[1]; female, rat IV infusion 3 hours, F, 333 ng/kg/min, read-out: CL",130 mL/min/kg
same,half-life,"[1]; female, rat, iv, t1/2 alpha",1.9 min
same,half-life,"[1]; female, rat, iv, t1/2 terminal",58.2 min
same,AUC(0-inf),[1]; [6],0.522 ng·h/mL
same,Cmax,[1]; [6],4.8 ng/mL
same,clearance,"[1]; male, 3000 ng/kg, rat IV bolus, M, 3,000 ng/kg, read-out: CL",109 mL/min/kg
same,AUC(0-inf),[1]; [7],1.5 ng·h/mL
same,Cmax,[1]; [7],13.6 ng/mL
same,clearance,"[1]; male, 10000 ng/kg, rat IV bolus, M, 10,000 ng/kg, read-out: CL",116 mL/min/kg
same,Cmax,"[1]; male, 50000 ng/kg, rat IV bolus, M, 50,000 ng/kg",224 ng/mL
same,clearance,"[1]; male, 50000 ng/kg, rat IV bolus, M, 50,000 ng/kg, read-out: CL",41.8 mL/min/kg
same,AUC(0-inf),[1]; [8],99.7 ng·h/mL
same,Cmax,[1]; [8],780 ng/mL
same,clearance,"[1]; male, 300000 ng/kg, rat IV bolus, M, 300,000 ng/kg, read-out: CL",50.1 mL/min/kg
same,AUC(0-inf),[1]; [9],1.24 ng·h/mL
same,Cmax,[1]; [9],0.752 ng/mL
same,clearance,"[1]; male, rat IV infusion 3 hours, M, 83.3 ng/kg/min, read-out: CL",116 mL/min/kg
same,AUC(0-inf),[1]; [10],2.43 ng·h/mL
same,Cmax,[1]; [10],1.53 ng/mL
same,clearance,"[1]; male, rat IV infusion 3 hours, M, 167 ng/kg/min, read-out: CL",109 mL/min/kg
same,AUC(0-inf),[1]; [11],4.85 ng·h/mL
same,Cmax,[1]; [11],2.86 ng/mL
same,clearance,"[1]; male, rat IV infusion 3 hours, M, 333 ng/kg/min, read-out: CL",118 mL/min/kg
same,half-life,"[1]; rat, alpha-phase half-life (t1/2 alpha)",< 5 min
same,time to apparent steady-state plasma concentration after initiation of infusion,"[1]; rat, iv",≤ 2 h
same,clearance,"[1]; rat, rats, IV bolus, read-out: clearance values",42 to 116 mL/min/kg
same,CO (Cardiac output),[2]; IV bolus 0.13 μg/kg,2.19 L/min
same,HR (Heart rate),[2]; IV bolus 0.13 μg/kg,73 beats/min
same,LV dP/dt (LV contractility),[2]; IV bolus 0.13 μg/kg,1546 mmHg/sec
same,LVEDA (LV end diastolic area),[2]; IV bolus 0.13 μg/kg,12.9 cm^2
same,LVEDV (LV end diastolic volume),[2]; IV bolus 0.13 μg/kg,55 mL
same,LVEF (LV ejection fraction),[2]; IV bolus 0.13 μg/kg,55%
same,LVESA (LV end systolic area),[2]; IV bolus 0.13 μg/kg,6.9 cm^2
same,LVESV (LV end systolic volume),[2]; IV bolus 0.13 μg/kg,25 mL
same,LVFAS (LV fractional area of shortening),[2]; IV bolus 0.13 μg/kg,46%
same,PSAP (Peak systolic aortic pressure),[2]; IV bolus 0.13 μg/kg,92 mmHg
same,SV (Stroke volume),[2]; IV bolus 0.13 μg/kg,30 mL
same,increase in heart rate (largest change),[2]; IV bolus 0.13 μg/kg to 13.1 μg/kg,45%
same,CO (Cardiac output),[2]; IV bolus 1.3 μg/kg,2.56 L/min
same,HR (Heart rate),[2]; IV bolus 1.3 μg/kg,85 beats/min
same,LV dP/dt (LV contractility),[2]; IV bolus 1.3 μg/kg,1606 mmHg/sec
same,LVEDA (LV end diastolic area),[2]; IV bolus 1.3 μg/kg,12.7 cm^2
same,LVEDV (LV end diastolic volume),[2]; IV bolus 1.3 μg/kg,54 mL
same,LVEF (LV ejection fraction),[2]; IV bolus 1.3 μg/kg,57%
same,LVESA (LV end systolic area),[2]; IV bolus 1.3 μg/kg,6.5 cm^2
same,LVESV (LV end systolic volume),[2]; IV bolus 1.3 μg/kg,23 mL
same,LVFAS (LV fractional area of shortening),[2]; IV bolus 1.3 μg/kg,49%
same,PSAP (Peak systolic aortic pressure),[2]; IV bolus 1.3 μg/kg,91 mmHg
same,SV (Stroke volume),[2]; IV bolus 1.3 μg/kg,30 mL
same,CO (Cardiac output),[2]; IV bolus 2.6 μg/kg,2.72 L/min
same,HR (Heart rate),[2]; IV bolus 2.6 μg/kg,92 beats/min
same,LV dP/dt (LV contractility),[2]; IV bolus 2.6 μg/kg,1675 mmHg/sec
same,LVEDA (LV end diastolic area),[2]; IV bolus 2.6 μg/kg,12.5 cm^2
same,LVEDV (LV end diastolic volume),[2]; IV bolus 2.6 μg/kg,52 mL
same,LVEF (LV ejection fraction),[2]; IV bolus 2.6 μg/kg,57%
same,LVESA (LV end systolic area),[2]; IV bolus 2.6 μg/kg,6.2 cm^2
same,LVESV (LV end systolic volume),[2]; IV bolus 2.6 μg/kg,22 mL
same,LVFAS (LV fractional area of shortening),[2]; IV bolus 2.6 μg/kg,50%
same,PSAP (Peak systolic aortic pressure),[2]; IV bolus 2.6 μg/kg,90 mmHg
same,SV (Stroke volume),[2]; IV bolus 2.6 μg/kg,30 mL
same,CO (Cardiac output),[2]; IV bolus 4.4 μg/kg,2.80 L/min
same,HR (Heart rate),[2]; IV bolus 4.4 μg/kg,94 beats/min
same,LV dP/dt (LV contractility),[2]; IV bolus 4.4 μg/kg,1682 mmHg/sec
same,LVEDA (LV end diastolic area),[2]; IV bolus 4.4 μg/kg,12.4 cm^2
same,LVEDV (LV end diastolic volume),[2]; IV bolus 4.4 μg/kg,51 mL
same,LVEF (LV ejection fraction),[2]; IV bolus 4.4 μg/kg,58%
same,LVESA (LV end systolic area),[2]; IV bolus 4.4 μg/kg,6.0 cm^2
same,LVESV (LV end systolic volume),[2]; IV bolus 4.4 μg/kg,22 mL
same,LVFAS (LV fractional area of shortening),[2]; IV bolus 4.4 μg/kg,52%
same,PSAP (Peak systolic aortic pressure),[2]; IV bolus 4.4 μg/kg,90 mmHg
same,SV (Stroke volume),[2]; IV bolus 4.4 μg/kg,30 mL
same,CO (Cardiac output),[2]; IV bolus 13.1 μg/kg,2.86 L/min
same,HR (Heart rate),[2]; IV bolus 13.1 μg/kg,107 beats/min
same,LV dP/dt (LV contractility),[2]; IV bolus 13.1 μg/kg,1760 mmHg/sec
same,LVEDA (LV end diastolic area),[2]; IV bolus 13.1 μg/kg,11.4 cm^2
same,LVEDV (LV end diastolic volume),[2]; IV bolus 13.1 μg/kg,46 mL
same,LVEF (LV ejection fraction),[2]; IV bolus 13.1 μg/kg,60%
same,LVESA (LV end systolic area),[2]; IV bolus 13.1 μg/kg,5.2 cm^2
same,LVESV (LV end systolic volume),[2]; IV bolus 13.1 μg/kg,18 mL
same,LVFAS (LV fractional area of shortening),[2]; IV bolus 13.1 μg/kg,53%
same,PSAP (Peak systolic aortic pressure),[2]; IV bolus 13.1 μg/kg,88 mmHg
same,SV (Stroke volume),[2]; IV bolus 13.1 μg/kg,28 mL
